Where two headings read alike, the source gives them in different places.
What was measured:
DGKα = DGKα (Homo sapiens (Human), UniProt P23743); experiment: Assay 1: In Vitro DGK Inhibition Assays, Method A (DGKα LIPGLO, extruded liposome); type: biochemical; conditions: extruded liposome substrate, 150 μM ATP
Procedure: (§1) Assay 1: In Vitro DGK Inhibition Assays—Method A
(§2) The DGKα and DGKζ reactions were performed using either extruded liposome (DGKα and DGKζ LIPGLO assays) or detergent/lipid micelle substrate (DGKα and DGKζ assays). The reactions were carried out in 50 mM MOPS pH 7.5, 100 mM NaCl, 10 mM MgCl2, 1 μM CaCl2), and 1 mM DTT (assay buffer). The reactions using a detergent/lipid micelle substrate also contained 50 mM octyl B-D-glucopyranoside. The lipid substrate concentrations were 11 mM PS and 1 mM DAG for the detergent/lipid micelle reactions. The lipid substrate concentrations were 2 mM PS, 0.25 mM DAG, and 2.75 mM PC for the extruded liposome reactions. The reactions were carried out in 150 μM ATP. The enzyme concentrations for the DGKα and DGKζ were 5 nM
(§3) The compound inhibition studies were carried out as follows: 50 nL droplets of each test compound (top concentration 10 mM with 11 point, 3-fold dilution series for each compound) solubilized in DMSO were transferred to wells of a white 1536 well plate (Corning 3725). A 5 mL enzyme/substrate solution at 2× final reaction concentration was prepared by combining 2.5 mL 4× enzyme solution (20 nM DGKα or DGKζ (prepared as described below) in assay buffer) and 2.5 mL of either 4× liposome or 4× detergent/lipid micelle solution (compositions described below) and incubated at room temperature for 10 minutes. Next, 1 μL 2× enzyme/substrate solution was added to wells containing the test compound and reactions were initiated with the addition of 1 μL 300 uM ATP. The reactions were allowed to proceed for 1 hr, after which 2 μL Glo Reagent (Promega V9101) was added and incubated for 40 minutes. Next, 4 μL Kinase Detection Reagent was added and incubated for 30 minutes. Luminescence was recorded using an EnVision microplate reader. […] The compounds were evaluated at 11 concentrations to determine IC50.
(§4) The lipid composition was 5 mol % DAG (Avanti 8008110), 40 mol % PS (Avanti 840035P), and 55 mol % PC (Avanti 850457) at a total lipid concentration of 15.2 mg/mL for the 4× liposome solution. The PC, DAG, and PS were dissolved in chloroform, combined, and dried in vacuo to a thin film. The lipids were hydrated to 20 mM in 50 mM MOPS pH 7.5, 100 mM NaCl, 5 mM MgCl2, and were freeze-thawed five times. The lipid suspension was extruded through a 100 nm polycarbonate filter eleven times. […] The liposome preparation was stored at 4° C. for as long as four weeks.
(§5) Baculovirus amplification was achieved using infected Sf9 cells at 1:1500 virus/cell ratios, and grown for 65 hours at 27° C. post-transfection.
(§6) The cells were lysed using nitrogen cavitation method with a nitrogen bomb (Parr Instruments), and the lysates were clarified by centrifugation. […] The three steps column chromatography included nickel affinity resin capture (i.e. HisTrap FF crude, GE Healthcare), followed by size exclusion chromatography (i.e. HiLoad 26/600 Superdex 200 prep grade, GE Healthcare for DGK-alpha, and HiPrep 26/600 Sephacryl S 300_HR, GE Healthcare for DGK-zeta). The third step was ion exchange chromatography, and differed for the two isoforms. DGKα was polished using Q-Sepharose anion exchange chromatography (GE Healthcare). DGKζ was polished using SP Sepharose cation exchange chromatography (GE Healthcare). The proteins were delivered at concentrations of ≥2 mg/mL. The formulation buffers were identical for both proteins: 50 mM Hepes, pH 7.2, 500 mM NaCl, 10% v/v glycerol, 1 mM TCEP, and 0.5 mM EDTA.

DGKζ = DGKζ (Homo sapiens (Human), UniProt Q13574); experiment: Assay 1 or 2: In Vitro DGK Inhibition Assays (DGKζ LIPGLO, extruded liposome); type: biochemical; conditions: extruded liposome substrate, 150 μM ATP
DGKζ, sequence (Q13574 other isoform, or with tags, fused parts or gaps): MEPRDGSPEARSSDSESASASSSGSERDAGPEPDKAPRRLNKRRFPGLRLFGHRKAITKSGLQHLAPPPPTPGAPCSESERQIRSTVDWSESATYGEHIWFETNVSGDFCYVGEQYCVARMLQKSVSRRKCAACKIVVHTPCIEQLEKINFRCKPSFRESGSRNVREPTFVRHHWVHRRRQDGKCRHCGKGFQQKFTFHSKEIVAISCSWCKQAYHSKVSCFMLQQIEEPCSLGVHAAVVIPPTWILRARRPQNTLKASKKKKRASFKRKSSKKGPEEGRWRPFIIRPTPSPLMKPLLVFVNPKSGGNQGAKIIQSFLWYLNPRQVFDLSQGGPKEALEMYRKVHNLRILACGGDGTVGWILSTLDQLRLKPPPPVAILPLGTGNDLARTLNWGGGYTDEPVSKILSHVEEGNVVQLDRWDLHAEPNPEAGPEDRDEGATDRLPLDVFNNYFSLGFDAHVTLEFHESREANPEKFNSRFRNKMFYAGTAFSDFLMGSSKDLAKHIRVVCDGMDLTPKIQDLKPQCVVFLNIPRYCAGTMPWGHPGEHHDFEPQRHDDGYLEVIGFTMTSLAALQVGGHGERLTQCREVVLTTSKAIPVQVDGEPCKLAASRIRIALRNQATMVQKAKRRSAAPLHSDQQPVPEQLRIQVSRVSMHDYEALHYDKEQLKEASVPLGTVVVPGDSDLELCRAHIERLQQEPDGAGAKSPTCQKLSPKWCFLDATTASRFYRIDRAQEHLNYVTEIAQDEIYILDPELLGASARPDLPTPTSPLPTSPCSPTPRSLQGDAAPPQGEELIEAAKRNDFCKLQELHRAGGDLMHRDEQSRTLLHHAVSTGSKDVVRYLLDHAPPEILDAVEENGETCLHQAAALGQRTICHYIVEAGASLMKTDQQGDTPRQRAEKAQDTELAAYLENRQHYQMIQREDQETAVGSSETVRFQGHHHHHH
Procedure: as §1, §2, §3, §4, §5, §6
Assay 2: In Vitro DGK Inhibition Assays—Method B
The DGKα and DGKζ reactions were performed using either extruded liposome (DGKα and DGKζ LIPGLO assays) or detergent/lipid micelle substrate (DGKα and DGKζ assays).

Human whole blood IFN-γ = experiment: Assay 10: Human Whole Blood IFN-γ Assay; type: cell-based; conditions: anti-CD3 and anti-CD28 stimulation, 100% = 3 μM reference compound, read-out: INFg Whole Blood Normalized Agonist EC50
Procedure: Assay 10: Human Whole Blood IFN-γ Assay
Human venous whole blood (22.5 μL per well), obtained from healthy donors, was pre-treated with compounds for one hour at 37° C. in a humidified 95% air/5% CO2 incubator. The blood was stimulated with 2.5 μL anti-human CD3 and anti-CD28 mAb at a final concentration of 1 μg/mL each for 24 hours at 37° C. IFN-7 in the supernatants was measured using AlphLISA kit (Cat #AL217).

DGKα, sequence (P23743 whole entry): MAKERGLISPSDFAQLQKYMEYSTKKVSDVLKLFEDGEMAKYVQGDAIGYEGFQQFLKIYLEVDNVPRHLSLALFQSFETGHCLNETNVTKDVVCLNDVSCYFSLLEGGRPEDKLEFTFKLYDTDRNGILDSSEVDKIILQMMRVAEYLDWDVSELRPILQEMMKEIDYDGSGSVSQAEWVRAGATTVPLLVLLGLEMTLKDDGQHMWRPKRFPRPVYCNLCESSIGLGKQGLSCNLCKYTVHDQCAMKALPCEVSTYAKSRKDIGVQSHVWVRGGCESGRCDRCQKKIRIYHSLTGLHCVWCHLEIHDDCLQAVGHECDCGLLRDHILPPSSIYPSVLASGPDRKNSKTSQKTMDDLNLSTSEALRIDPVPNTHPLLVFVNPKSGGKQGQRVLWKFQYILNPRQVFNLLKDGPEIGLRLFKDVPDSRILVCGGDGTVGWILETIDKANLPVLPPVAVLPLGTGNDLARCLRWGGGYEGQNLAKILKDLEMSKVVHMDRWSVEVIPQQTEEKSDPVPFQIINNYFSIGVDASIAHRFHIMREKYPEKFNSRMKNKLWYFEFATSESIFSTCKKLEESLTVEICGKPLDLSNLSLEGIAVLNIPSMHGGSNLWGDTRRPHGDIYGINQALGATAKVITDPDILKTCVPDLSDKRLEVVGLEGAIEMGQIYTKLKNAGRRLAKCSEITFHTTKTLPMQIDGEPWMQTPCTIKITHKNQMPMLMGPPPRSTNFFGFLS

Row | SMILES | IC50 (DGKα) | IC50 (DGKζ) | EC50 (Human whole blood IFN-γ; 24 hours) | EC50 (Human whole blood IFN-γ; Homo sapiens, 24 h)
1 | C[C@@H]1CN(c2cc(=O)n(C)c3ccc(C#N)nc23)[C@@H](C)CN1C(C(=O)NCC(F)F)c1ccc(F)cc1 (stereo partly drawn) [Example 5, 2-((2R,5S)-4-(6-cyano-1-methyl-2-oxo-1,2-dihydro-1,5-naphthyridin-4-yl)-2,5-dimethylpiperazin-1-yl)-N-(2,2-difluoroethyl)-2-(4-fluorophenyl)acetamide] | 2.04 µM | 3.27 µM |  | 
2 | C[C@@H]1CN(c2cc(=O)n(C)c3ccc(C#N)nc23)[C@@H](C)CN1C(C(=O)N1CCCCC1)c1ccc(F)cc1 (stereo partly drawn) [Example 12] | 5.12 µM | 6.68 µM |  | 
3 | C[C@@H]1CN(c2cc(=O)n(C)c3ccc(C#N)nc23)[C@@H](C)CN1C(C(=O)N1CCOCC1)c1ccc(F)cc1 (stereo partly drawn) [Example 17, 8-((2S,5R)-4-(1-(4-fluorophenyl)-2-morpholino-2-oxoethyl)-2,5-dimethylpiperazin-1-yl)-5-methyl-6-oxo-5,6-dihydro-1,5-naphthyridine-2-carbonitrile] | 2.56 µM | 7.75 µM | 1.49 µM | 
4 | C[C@@H]1CN(c2cc(=O)n(C)c3ccc(C#N)nc23)[C@@H](C)CN1C(C(=O)N1CCOCC1)c1ccc(F)cc1 (stereo partly drawn) [Example 18, 8-((2S,5R)-4-(1-(4-fluorophenyl)-2-morpholino-2-oxoethyl)-2,5-dimethylpiperazin-1-yl)-5-methyl-6-oxo-5,6-dihydro-1,5-naphthyridine-2-carbonitrile] | 24.8 µM | 42.9 µM | 20 µM | 
5 | C[C@@H]1CN(c2cc(=O)n(C)c3ccc(C#N)nc23)[C@@H](C)CN1C(C(=O)N1CCN(C)CC1)c1ccc(F)cc1 (stereo partly drawn) [Example 19, 8-((2S,5R)-4-(1-(4-fluorophenyl)-2-(4-methylpiperazin-1-yl)-2-oxoethyl)-2,5-dimethylpiperazin-1-yl)-5-methyl-6-oxo-5,6-dihydro-1,5-naphthyridine-2-carbonitrile] | 37.1 µM | 172 µM |  | 3.44 µM
6 | C[C@@H]1CN(c2cc(=O)n(C)c3ccc(C#N)nc23)[C@@H](C)CN1C(C(=O)N1CCN(C)CC1)c1ccc(F)cc1 (stereo partly drawn) [Example 20, 8-((2S,5R)-4-(1-(4-fluorophenyl)-2-(4-methylpiperazin-1-yl)-2-oxoethyl)-2,5-dimethylpiperazin-1-yl)-5-methyl-6-oxo-5,6-dihydro-1,5-naphthyridine-2-carbonitrile] | 253 µM | 83.3 µM |  | 
7 | C[C@@H]1CN(c2cc(=O)n(C)c3ccc(C#N)nc23)[C@@H](C)CN1C(C(=O)Nc1ccon1)c1ccc(F)cc1 (stereo partly drawn) [Example 29, 2-((2R,5S)-4-(6-cyano-1-methyl-2-oxo-1,2-dihydro-1,5-naphthyridin-4-yl)-2,5-dimethylpiperazin-1-yl)-2-(4-fluorophenyl)-N-(isoxazol-3-yl)acetamide] | 5.57 µM | 2.44 µM |  | 3.75 µM
8 | C[C@@H]1CN(c2cc(=O)n(C)c3ccc(C#N)nc23)[C@@H](C)CN1C(C(=O)Nc1ccon1)c1ccc(F)cc1 (stereo partly drawn) [Example 30, 2-((2R,5S)-4-(6-cyano-1-methyl-2-oxo-1,2-dihydro-1,5-naphthyridin-4-yl)-2,5-dimethylpiperazin-1-yl)-2-(4-fluorophenyl)-N-(isoxazol-3-yl)acetamide] | 0.02 µM | 0.14 µM |  | 
9 | CC(C)N(C)C(=O)CC(c1ccc(F)cc1)N1C[C@H](C)N(c2cc(=O)n(C)c3ccc(C#N)nc23)C[C@H]1C (stereo partly drawn) [Example 42, 3-[(2R,5S)-4-(6-cyano-1-methyl-2-oxo-1,2-dihydro-1,5-naphthyridin-4-yl)-2,5-dimethylpiperazin-1-yl]-3-(4-fluorophenyl)-N-methyl-N-(propan-2-yl)propanamide] | 0.83 µM | 4.12 µM | 1.37 µM | 
10 | C#CCCC1(CCCOC(=O)C(c2ccc(F)cc2)N2C[C@H](C)N(c3cc(=O)n(C)c4ccc(C#N)nc34)C[C@H]2C)N=N1 (stereo partly drawn) [Example 57, 3-(3-(but-3-yn-1-yl)-3H-diazirin-3-yl)propyl 2-((2R,5S)-4-(6-cyano-1-methyl-2-oxo-1,2-dihydro-1,5-naphthyridin-4-yl)-2,5-dimethylpiperazin-1-yl)-2-(4-fluorophenyl)acetate] | 0.07 µM | 0.19 µM |  | 0.12 µM
11 | C[C@@H]1CN(c2cc(=O)n(C)c3ccc(C#N)nc23)[C@@H](C)CN1C(C(=O)OCCC1(C)N=N1)c1ccc(F)cc1 (stereo partly drawn) [Example 62, 2-(3-methyl-3H-diazirin-3-yl)ethyl 2-((2R,5S)-4-(6-cyano-1-methyl-2-oxo-1,2-dihydro-1,5-naphthyridin-4-yl)-2,5-dimethylpiperazin-1-yl)-2-(4-fluorophenyl)acetate] | 0.08 µM | 0.19 µM |  | 0.57 µM
12 | C[C@@H]1CN(c2cc(=O)n(C)c3ccc(C#N)nc23)[C@@H](C)CN1C(C(=O)NCCOCCOCCNC(=O)c1ccc2c(c1)C(=O)OC21c2ccc(O)cc2Oc2cc(O)ccc21)c1ccc(F)cc1 (stereo partly drawn) [Example 65, N-(2-(2-(2-(2-((2R,5S)-4-(6-cyano-1-methyl-2-oxo-1,2-dihydro-1,5-naphthyridin-4-yl)-2,5-dimethylpiperazin-1-yl)-2-(4-fluorophenyl)acetamido)ethoxy)ethoxy)ethyl)-3′,6′-dihydroxy-3-oxo-3H-spiro[isobenzofuran-1,9′-xanthene]-5-carboxamide] | 96.5 µM | 56.6 µM |  | 
13 | C[C@@H]1CN(c2cc(=O)n(C)c3ccc(C#N)nc23)[C@@H](C)CN1C(C(=O)OCCOCCOCCNC(=O)c1ccc2c(c1)C(=O)OC21c2ccc(O)cc2Oc2cc(O)ccc21)c1ccc(F)cc1 (stereo partly drawn) [Example 68, 2-(2-(2-(3′,6′-dihydroxy-3-oxo-3H-spiro[isobenzofuran-1,9′-xanthene]-5-carboxamido)ethoxy)ethoxy)ethyl 2-((2R,5S)-4-(6-cyano-1-methyl-2-oxo-1,2-dihydro-1,5-naphthyridin-4-yl)-2,5-dimethylpiperazin-1-yl)-2-(4-fluorophenyl)acetate] | 0.16 µM | 0.41 µM |  | 

From patent publication US12454531B2, “Substituted piperazine derivatives useful as T cell activators” (BRISTOL-MYERS SQUIBB COMPANY, priority 2019, dated 2025)
